# Experimental data reported in patent US8703769B2, “Use of EGFR inhibitors to prevent or treat obesity” (The University of North Carolina at Chapel Hill, priority 2005, dated 2014).
# How the values were obtained:
# Type in all cases: in vivo
# EGFR [1] = molecular target: T1, EGFR (Mus musculus, UniProt Q01279); test: High fat diet with or without AG1478 for 6 months, B6 male mice (Example 3)
# T1 construct: from tissue; host or cells: whole animal: wild-type C57BL/6J male mice
# Method: (§1) Diets: A base Western Diet (D12079B, Research Diets, Inc., New Brunswick, N.J., U.S.A.) having 41% fat (kcal) was used in all studies, and is designated HFD. The small molecule inhibitor AG1478 (LC Laboratories, Woburn, Mass., U.S.A.) was added to this base diet to a final concentration of […]. This diet is designated HFD+INH.
# (§2) In experiments using wild-type C57BL6/J (B6) mice, male mice were housed individually and were started on the diet experiments at 8 weeks of age. In Example 2, mice were maintained on the HFD or HFD+INH for 1 month. In Example 3, mice were maintained on the HFD (n=8) or HFD+INH (n=8) for 6 months. In Example 4, all mice were placed on the HFD for 3 months; after this time, Group 1 (n=4) was placed on HFD+INH, while Group 2 (n=4) was maintained on HFD.
# (§3) Clinical chemistry: Non-fasted blood glucose levels were measured at baseline and monthly using the FREESTYLE® blood glucose monitor (Abbott Laboratories, Abbott Park, Ill., U.S.A.) which was calibrated per manufacturer's instruction prior to use. All measurements were taken from 4-5 pm. At sacrifice, blood was collected by retro-orbital bleed and serum was isolated. Serum concentrations of triglycerides and total cholesterol were measured using an automatic blood chemical analyzer (Johnson & Johnson, New Brunswick, N.J., U.S.A.) by the University of North Carolina at Chapel Hill Animal Clinical Chemistry and Gene Expression Laboratories Core.
# (§4) Body composition analysis: On the day of analysis, mice were weighed, anaesthetized with 2-3% isofluorane, and body composition was determined with a PIXIMUS II™ Mouse Densitometer (GE Medical Systems, distributed by Faxitron X-Ray Corporation, Wheeling, Ill., U.S.A.) using software versions 1.46 and 2.10. These measurements were taken at baseline and monthly during the diet studies. The Dual-energy X-ray absorptiometry (DEXA) method of determining body composition and body fat has been validated in lean and obese mice (Brommage (2003) J Physiol Endocrinol Metab 285: E454-459).
# (§5) Statistical analysis: Results are expressed as mean+/−STD. A two-sided unpaired student's t-test was used for preliminary statistical analysis.
# In order to determine if the short-term effects on weight gain due to the inhibitor action were applicable over a longer time period, the experiments of Example 2 were extended over six months.
# Baseline measurements (body weights, blood glucose, and percent body fat) were taken of 2-month-old male C57 BL/6J (B6) mice which were then housed individually and randomly assigned to receive either HFD or HFD+Inhibitor A (AG 1478). Measurements were again assessed at 1, 2 and 6 months of treatment. All mice were sacrificed at month 6. At sacrifice, blood was collected for clinical chemistry. Heart, liver and fat depots were also dissected and weighed. A two-sided unpaired student's t-test was used for preliminary statistical analysis.
# EGFR [2] = molecular target: T1, EGFR; test: Already obese B6 male mice on HFD switched to HFD+INH (Example 4); conditions: n=4 per group
# Method: as §1, §2, §3, §4, §5
# In order to assess whether EGFR inhibitors can effect weight loss or stasis in an already obese subject, obese mice were administered an EGFR inhibitor and body mass and chemistry measurements made over time while maintaining a HFD. Specifically, baseline measurements were taken of 2 month-old male B6 mice, which were then housed individually and placed on a HFD for 2 months. Body weights, blood glucose, and percent body fat were assessed at this time point, and mice were randomly assigned to two groups. Group 1 (Grp1) was continuously fed the HFD, while Group 2 (Grp2) was switched to the HFD+INH after the initial two months. Measurements were again assessed at 1 and 3 months after the diet switch (experimental month 3 and 5). All mice were sacrificed at month 5. At sacrifice, blood was collected for clinical chemistry and heart, liver and fat depots were dissected and weighed. A two-sided unpaired student's t-test was used for preliminary statistical analysis.
# EGFR [3] = molecular target: T1, EGFR; test: High fat diet with or without AG1478 for about 1 month, C57BL/6 male mice (Example 2); conditions: for accumulation of adipose tissue (percent body fat by DEXA): C57BL/6 male mice, HFD + AG1478 (144 ppm in diet) vs HFD alone, FIGS. 9-12
# Method: as §1, §2, §3, §4, §5
# FIGS. 9-12 depict the results of C57BL/6 male mice exposed either to a high fat diet (HFD; […]) or the HFD base diet plus the EGFR small molecule inhibitor AG1478 (144 ppm) for about 1 month. The mice were approximately 6 weeks old when started on the dietary study. Male littermates were housed together, so the data are shown as the mean per cage. There is an n of […] for the mice on the HFD+inhibitor (INH), with two test groups of 6 (HFD+INH1 and HFD+INH2) and an n of 4 for the HFD cage.
# [4] = HFD+inhibitor A vs HFD alone, six months, n=8 per group, FIG. 14
# [5] = plasma after 6 months, 7-8 mice per group, HFD+Inhibitor A vs HFD, FIG. 17
# [6] = between treatment groups at sacrifice (month 5), FIG. 20B
# [7] = between treatment groups, FIG. 21
# T1 sequence (Q01279 25-1210): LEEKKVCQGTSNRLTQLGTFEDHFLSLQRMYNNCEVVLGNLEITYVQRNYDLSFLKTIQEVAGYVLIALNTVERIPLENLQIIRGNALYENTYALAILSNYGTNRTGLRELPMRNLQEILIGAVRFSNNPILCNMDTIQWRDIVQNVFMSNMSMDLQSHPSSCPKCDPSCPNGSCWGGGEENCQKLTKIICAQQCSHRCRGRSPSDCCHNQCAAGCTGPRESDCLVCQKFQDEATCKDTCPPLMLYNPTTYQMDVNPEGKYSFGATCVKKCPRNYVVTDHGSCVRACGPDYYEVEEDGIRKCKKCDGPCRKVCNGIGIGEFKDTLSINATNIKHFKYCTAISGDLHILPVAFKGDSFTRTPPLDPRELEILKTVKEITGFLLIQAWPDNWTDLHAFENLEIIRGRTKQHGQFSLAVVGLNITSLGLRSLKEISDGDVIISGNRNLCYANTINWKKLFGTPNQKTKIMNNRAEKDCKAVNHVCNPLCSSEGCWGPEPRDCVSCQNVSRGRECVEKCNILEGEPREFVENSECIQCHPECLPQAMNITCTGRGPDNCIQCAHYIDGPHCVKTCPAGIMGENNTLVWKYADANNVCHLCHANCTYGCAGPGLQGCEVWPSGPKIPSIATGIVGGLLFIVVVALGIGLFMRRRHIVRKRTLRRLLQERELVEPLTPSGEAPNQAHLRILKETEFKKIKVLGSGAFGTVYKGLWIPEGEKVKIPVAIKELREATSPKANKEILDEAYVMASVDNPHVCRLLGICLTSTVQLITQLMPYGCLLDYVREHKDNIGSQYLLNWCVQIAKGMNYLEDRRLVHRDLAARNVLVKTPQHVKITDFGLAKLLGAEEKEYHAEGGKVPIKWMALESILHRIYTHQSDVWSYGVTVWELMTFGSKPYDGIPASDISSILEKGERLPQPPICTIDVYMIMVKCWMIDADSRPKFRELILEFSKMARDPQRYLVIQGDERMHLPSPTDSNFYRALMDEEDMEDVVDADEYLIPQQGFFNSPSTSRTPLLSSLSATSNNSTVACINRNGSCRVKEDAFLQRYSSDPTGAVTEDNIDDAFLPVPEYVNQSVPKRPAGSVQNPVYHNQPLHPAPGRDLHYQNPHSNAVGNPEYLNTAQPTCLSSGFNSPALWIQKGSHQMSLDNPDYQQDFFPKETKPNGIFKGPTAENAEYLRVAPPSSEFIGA
compound,measurement,setting,value
"COc1cc2ncnc(Nc3cccc(Cl)c3)c2cc1OC [AG1478, 4-(3-Chloroanillino)-6,7-dimethoxyquinazoline]",body weight (BW),"EGFR [1]; B6 male mice, HFD+inhibitor A vs HFD alone, 6 months, n=8 per group, FIG. 13",significantly decreased
same,percent body fat as assessed by DEXA,"EGFR [1]; B6 male mice, HFD+inhibitor A vs HFD alone, 6 months, n=8 per group, p<0.001, FIG. 13",significantly decreased
same,fat mass,EGFR [1]; [4],decreased
same,lean body mass,EGFR [1]; [4],no change
same,gross heart weight,"EGFR [1]; after 6 months, HFD+Inhibitor A vs HFD, FIG. 16",no significant differences
same,gross liver weight,"EGFR [1]; after 6 months, HFD+Inhibitor A vs HFD, p<0.02, FIG. 16",significantly reduced
same,"fat mass in the four major fat depots (intraperitoneal, intrascapular, kidney, perigonadal)","EGFR [1]; dissection after 6 months, HFD+Inhibitor A vs HFD, FIG. 15",decreased fat mass in all four major fat depots
same,total cholesterol level,EGFR [1]; [5],significantly lower
same,triglyceride level,EGFR [1]; [5],significantly lower
same,percent increase in BW relative to BW at 2 months on HFD,"EGFR [2]; Group 2 (HFD+Inhibitor A) vs Group 1 (HFD), after 1 and 3 months on HFD+Inhibitor A, p<0.02, FIG. 18",significantly lower
same,"percent increase in BF (H), body fat by DEXA relative to time of diet change","EGFR [2]; Group 2 vs Group 1, after 3 months on HFD+Inhibitor A, p<0.02, FIG. 19",significantly lower
same,fat depot weights,"EGFR [2]; between treatment groups at sacrifice (month 5), FIG. 20A",No significant differences
same,heart weight,EGFR [2]; [6],No significant differences
same,liver weight,EGFR [2]; [6],No significant differences
same,blood glucose level,EGFR [2]; [7],no significant differences
same,total cholesterol level,EGFR [2]; [7],no significant differences
same,triglyceride level,EGFR [2]; [7],no significant differences
same,accumulation of adipose tissue (percent body fat by DEXA),EGFR [3]; about 1 month,reduction in adipose tissue accumulation
same,accumulation of adipose tissue (percent body fat by DEXA),"EGFR [3]; about 1 month, listed as AG 1478",successfully inhibited the accumulation of adipose tissue
same,body weight gain,"EGFR [3]; HFD+INH vs HFD control mice, one month, FIG. 11",gained less body weight
same,food consumption per mouse per day,"EGFR [3]; HFD+INH vs HFD, about 1 month, estimated from total food remaining per day, FIG. 10",no significant difference
